Values after ≈ are worked out from the molar mass of the structure shown. Like-named read-outs stand apart in the source and are kept apart here. Bridge positions count the residues as written; N and C are the ends. Square brackets hold non-standard residues; d marks the D form. Peptide text beside a SMILES is read from it. 1Nal = N[C@@H](Cc1cccc2ccccc12)C(=O)O; d(aIle) = CC[C@H](C)[C@@H](N)C(=O)O; dNMeF = CN[C@H](Cc1ccccc1)C(=O)O
How the values were obtained:
[1] = tested on: C. difficile
[2] = tested on: E.coli; format: cell-based, Escherichia coli; conditions: for MIC ratio Coli/Staph: ratio of E. coli MIC to S. aureus MIC
Experimental: (§1) This assay was used to determine the minimum concentration of a test compound (i.e., an antimicrobial peptide described herein) able to inhibit the growth of a bacterial strain of interest. This is a standard method for measuring and comparing the potency of peptide-based antibacterial agents (Steinberg et al., Antimicrobial Agents and Chemotherapy 1997, 41 (8) 1738 - 1742 and Wiegand et al., Nature Protocols 2008, 3, 163-175).
(§2) The MIC is reported in units of μg/mL.
(§3) Bacterial cultures were grown by inoculating Mueller-Hinton Broth (MHB) with 3 or 4 representative colony (typical size, color, and shape) from a bacterial strain grown on a LB agar plate. Inoculated liquid cultures were grown at 37° C. with moderate shaking (200-250 rpm) until bacteria produced a visibly turbid suspension. Bacterial inoculum was approximated by measuring the optical density at 600 nm (0D600) of the bacterial culture against a sterile MHB blank. Typically, OD600=0.10 corresponds to ˜1×10^8 cfu/mL for S.aureus and OD600 =0.15 corresponds to ˜1×10^8 cfu/mL for E.coli.
(§4) Test compounds were prepared as stock solutions in vehicle at a concentration 10 times the highest concentration to be tested for antibacterial activity (usually 320 μg/mL stock solutions). 2x serial dilutions in vehicle (at 10× the final test concentrations) of the test compounds were prepared from the test compound stock solutions in a non-binding 96 well plate.
(§5) In a sterile clear flat bottom 96 well plate, 15 μL of each test compound dilution was added to 135 μL of ˜5×10^5 cfu/mL bacterial culture. Each concentration was tested in duplicate. Each experiment contained positive control wells for bacterial growth (i.e., no test compound added to bacteria) and sterility controls wells (i.e., sterile MHB and no test compounds added). 96 well plates containing bacterial cultures and test compounds were incubated at 37° C. for 16-20 hours with shaking at 200 rpm.
(§6) After incubation, the MIC of each test compound was determined by measuring the OD600 of each well using a plate reader. Wells with OD600 >0.08 were considered to have bacterial growth and wells with OD600<0.08 were considered to have no bacterial growth. The lowest concentration of test agent able to inhibit bacterial growth (0D600<0.08 after 16-20 hours) was defined as the MIC.

[3] = tested on: S.aureus; format: cell-based, Staphylococcus aureus
Experimental: as §1, §2, §3, §4, §5, §6

[4] = tested on: B. fragilis
[5] = broth microdilution, Example 17a

| MIC C. difficile [1] [µg/mL] | MIC E. coli [2] [µg/mL] | MIC ratio Coli/Staph [2] | MIC S. aureus [3] [µg/mL] | MIC B. fragilis [4] [µg/mL] | MIC C. difficile ([1]; anaerobic broth microdilution, read after 44-48 hours, Example 17b) [µg/mL] | Compound | MIC E. coli [2, 5] [µg/mL] | MIC S. aureus [3, 5] [µg/mL] |
| --- | --- | --- | --- | --- | --- | --- | --- | --- |
| 0.12 (≈ 0.0975 µM) | 16 (≈ 13 µM) | 123 | 0.13 (≈ 0.106 µM) | >32 |  | CC[C@H](C)[C@H](NC(=O)[C@@H](Cc1ccccc1)NC)C(=O)N[C@@H](CO)C(=O)N[C@H](CCC(N)=O)C(=O)N[C@@H](C(=O)N[C@H](C(=O)N[C@@H](CO)C(=O)N[C@H]1C(=O)N[C@@H](C)C(=O)N[C@@H](CCCCCN)C(=O)N[C@@H]([C@@H](C)CC)C(=O)O[C@H]1C)[C@@H](C)CC)[C@@H](C)CC [Compound 9, H-D-MePhe-Ile-Ser-D-Gln-D-aIle-Ile-Ser-c(D-Thr-Ala-hLys-Ile)] |  |  |
|  | 16 (≈ 13.2 µM) | 84 | 0.19 (≈ 0.156 µM) |  |  | CC[C@H](C)[C@H](NC(=O)[C@H](NC(=O)[C@@H](CCC(N)=O)NC(=O)[C@H](CO)NC(=O)[C@H](CC(C)C)NC(=O)[C@@H](Cc1ccccc1)NC)[C@@H](C)CC)C(=O)N[C@@H](CO)C(=O)N[C@H]1C(=O)N[C@@H](C)C(=O)N[C@@H](CCCCN)C(=O)N[C@@H]([C@@H](C)CC)C(=O)O[C@H]1C [Compound 10, H-D-MePhe-Leu-Ser-D-Gln-D-aIle-Ile-Ser-c(D-Thr-Ala-Lys-Ile)] (H-[dNMeF]LS[dQ][d(aIle)]IS[dT]AKI; ester 8-C) |  |  |
| 0.06 to 0.12 | 8 (≈ 6.47 µM) | 62 | 0.13 (≈ 0.105 µM) | >32 |  | CC[C@H](C)[C@H](NC(=O)[C@H](N)Cc1ccc(Cl)cc1)C(=O)N[C@@H](CO)C(=O)N[C@H](CCC(N)=O)C(=O)N[C@@H](C(=O)N[C@H](C(=O)N[C@@H](CO)C(=O)N[C@H]1C(=O)N[C@@H](C)C(=O)N[C@@H](CCCCN)C(=O)N[C@@H]([C@@H](C)CC)C(=O)O[C@H]1C)[C@@H](C)CC)[C@@H](C)CC [Compound 4, H-D-Phe(4-Cl)-Ile-Ser-D-Gln-D-aIle-Ile-Ser-c(D-Thr-Ala-Lys-Ile)] |  |  |
|  | >32 | >356 | 0.09 (≈ 0.0678 µM) |  |  | CC[C@H](C)[C@H](NC(=O)[C@@H](Cc1ccccc1)NC)C(=O)N[C@@H](Cc1cccc2ccccc12)C(=O)N[C@H](CCC(N)=O)C(=O)N[C@@H](C(=O)N[C@H](C(=O)N[C@@H](CO)C(=O)N[C@H]1C(=O)N[C@@H](C)C(=O)N[C@@H](CCCCN)C(=O)N[C@@H]([C@@H](C)CC)C(=O)O[C@H]1C)[C@@H](C)CC)[C@@H](C)CC [Compound 3, H-D-MePhe-Ile-1Nal-D-Gln-D-aIle-Ile-Ser-c(D-Thr-Ala-Lys-Ile)] (H-[dNMeF]I[1Nal][dQ][d(aIle)]IS[dT]AKI; ester 8-C) |  |  |
| 0.06 to 0.12 | 4 (≈ 3.29 µM) | 16 | 0.25 (≈ 0.206 µM) | >32 |  | CC[C@H](C)[C@H](NC(=O)[C@@H](Cc1ccccc1)NC)C(=O)N[C@@H](CO)C(=O)N[C@H](CCCCN)C(=O)N[C@@H](C(=O)N[C@H](C(=O)N[C@@H](CO)C(=O)N[C@H]1C(=O)N[C@@H](C)C(=O)N[C@@H](CCCCN)C(=O)N[C@@H]([C@@H](C)CC)C(=O)O[C@H]1C)[C@@H](C)CC)[C@@H](C)CC [Compound 14, H-D-MePhe-Ile-Ser-D-Lys-D-aIle-Ile-Ser-c(D-Thr-Ala-Lys-Ile)] (H-[dNMeF]IS[dK][d(aIle)]IS[dT]AKI; ester 8-C) |  |  |
| 0.12 (≈ 0.0953 µM) | 16 (≈ 12.7 µM) | 64 | 0.25 (≈ 0.199 µM) | >32 |  | CC[C@H](C)[C@H](NC(=O)[C@@H](Cc1ccccc1)NC)C(=O)N[C@@H](CO)C(=O)N[C@H](CCC(N)=O)C(=O)N[C@@H](C(=O)N[C@H](C(=O)N[C@@H](CO)C(=O)N[C@H]1C(=O)N[C@@H](C)C(=O)N[C@@H](CCCNC(=N)NC)C(=O)N[C@@H]([C@@H](C)CC)C(=O)O[C@H]1C)[C@@H](C)CC)[C@@H](C)CC [Compound 11, H-D-MePhe-Ile-Ser-D-Gln-D-aIle-Ile-Ser-c(D-Thr-Ala-Arg(Me)-Ile)] |  |  |
| 0.12 (≈ 0.0964 µM) | >16 | >64 | 0.25 to 0.5 | >32 |  | CC[C@H](C)[C@H](NC(=O)[C@@H](Cc1ccccc1)NC)C(=O)N[C@@H](CO)C(=O)N[C@H](CCC(N)=O)C(=O)N[C@@H](C(=O)N[C@H](C(=O)N[C@@H](CO)C(=O)N[C@H]1C(=O)N[C@@H](C)C(=O)N[C@@H](CCCNC(=N)N)C(=O)N[C@@H]([C@@H](C)CC)C(=O)O[C@H]1C)[C@@H](C)CC)[C@@H](C)CC [Arg10-teixobactin] |  |  |
|  | 32 (≈ 24.3 µM) | 246 | 0.13 (≈ 0.0988 µM) | >32 | ≤0.03 to 0.06 | CC[C@H](C)[C@H](NC(=O)[C@@H](Cc1ccccc1)NC)C(=O)N[C@@H](Cc1c[nH]c2ccccc12)C(=O)N[C@H](CCC(N)=O)C(=O)N[C@@H](C(=O)N[C@H](C(=O)N[C@@H](CO)C(=O)N[C@H]1C(=O)N[C@@H](C)C(=O)N[C@@H](CCCCN)C(=O)N[C@@H]([C@@H](C)CC)C(=O)O[C@H]1C)[C@@H](C)CC)[C@@H](C)CC [Compound 7, H-D-MePhe-Ile-Trp-D-Gln-D-aIle-Ile-Ser-c(D-Thr-Ala-Lys-Ile)] (H-[dNMeF]IW[dQ][d(aIle)]IS[dT]AKI; ester 8-C) |  |  |
| 0.25 (≈ 0.206 µM) | 32 (≈ 26.3 µM) | 128 | 0.25 (≈ 0.206 µM) | >32 |  | CC[C@@H](C)[C@@H](NC(=O)[C@@H](CCC(N)=O)NC(=O)[C@H](CO)NC(=O)[C@@H](NC(=O)[C@@H](Cc1ccccc1)NC)[C@@H](C)CC)C(=O)N[C@H](C(=O)N[C@@H](CO)C(=O)N[C@H]1C(=O)N[C@@H](C)C(=O)N[C@@H](CCCCN)C(=O)N[C@@H]([C@@H](C)CC)C(=O)O[C@H]1C)[C@@H](C)CC [Compound 12, H-D-MePhe-Ile-Ser-D-Gln-D-Ile-Ile-Ser-c(D-Thr-Ala-Lys-Ile)] |  |  |
|  | 16 (≈ 12.6 µM) | 64 | 0.25 (≈ 0.196 µM) |  |  | CC[C@H](C)[C@H](NC(=O)[C@@H](Cc1ccccc1)NC)C(=O)N[C@@H](CO)C(=O)N[C@H](Cc1c[nH]c2ccccc12)C(=O)N[C@@H](C(=O)N[C@H](C(=O)N[C@@H](CO)C(=O)N[C@H]1C(=O)N[C@@H](C)C(=O)N[C@@H](CCCCN)C(=O)N[C@@H]([C@@H](C)CC)C(=O)O[C@H]1C)[C@@H](C)CC)[C@@H](C)CC [Compound 13, H-D-MePhe-Ile-Ser-D-Trp-D-aIle-Ile-Ser-c(D-Thr-Ala-Lys-Ile)] (H-[dNMeF]IS[dW][d(aIle)]IS[dT]AKI; ester 8-C) |  |  |

| Compound | MIC C. difficile [1] [µg/mL] | MIC E. coli [2] [µg/mL] | MIC ratio Coli/Staph [2] | MIC S. aureus [3] [µg/mL] | MIC B. fragilis [4] [µg/mL] | MIC C. difficile ([1]; anaerobic broth microdilution, read after 44-48 hours, Example 17b) [µg/mL] | MIC E. coli [2, 5] [µg/mL] | MIC S. aureus [3, 5] [µg/mL] |
| --- | --- | --- | --- | --- | --- | --- | --- | --- |
| CC[C@H](C)[C@H](NC(=O)[C@@H](Cc1ccccc1)NC)C(=O)N[C@@H](CCCCN)C(=O)N[C@H](CCC(N)=O)C(=O)N[C@@H](C(=O)N[C@H](C(=O)N[C@@H](CO)C(=O)N[C@H]1C(=O)N[C@@H](C)C(=O)N[C@@H](CCCCN)C(=O)N[C@@H]([C@@H](C)CC)C(=O)O[C@H]1C)[C@@H](C)CC)[C@@H](C)CC [Compound 8, H-D-MePhe-Ile-Lys-D-Gln-D-aIle-Ile-Ser-c(D-Thr-Ala-Lys-Ile)] (H-[dNMeF]IK[dQ][d(aIle)]IS[dT]AKI; ester 8-C) | 0.06 (≈ 0.0477 µM) |  | 31 |  | >32 |  | 4 (≈ 3.18 µM) | 0.13 (≈ 0.103 µM) |

From patent publication US20200216493A1, “ANTIMICROBIAL PEPTIDES” (FERRING B.V., priority 2016, published 2020)
